From the supplement of paper PMC10307832

What was measured:
Test in all cases: relative viability (nuclei count vs DMSO), 5 days (fraction); higher = more cells survive
201T = system: 201T
Summary of the method: (§1)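 A single step with final 0.05% Triton X-100, 1% formaldehyde and 1 ug/ml Hoechst fixed the cells and stained nuclei 5 days after treatment. Lung cancer cell lines in 1536-well plates had been treated by pin tool the day after seeding with one drug alone or a fixed anchor-drug dose plus five library-drug doses (not always all listed) in √10 steps, and nuclei were counted on 4× images. Relative viability is the ratio of nuclei in treated wells to nuclei in vehicle wells, taken as the median of duplicate plates.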

A-427 = system: A-427
Summary of the method: as §1

ABC-1 = system: ABC-1
Summary of the method: as §1

BEN = system: BEN
Summary of the method: as §1

CAL-12T = system: CAL-12T
Summary of the method: as §1

H3255 = system: H3255
Summary of the method: as §1

LC-2-ad = system: LC-2-ad
Summary of the method: as §1

LCLC-97TM1 = system: LCLC-97TM1
Summary of the method: as §1

NCI-H1650 = system: NCI-H1650
Summary of the method: as §1

NCI-H1651 = system: NCI-H1651
Summary of the method: as §1

NCI-H1915 = system: NCI-H1915
Summary of the method: as §1

NCI-H1944 = system: NCI-H1944
Summary of the method: as §1

NCI-H2023 = system: NCI-H2023
Summary of the method: as §1

NCI-H2087 = system: NCI-H2087
Summary of the method: as §1

NCI-H460 = system: NCI-H460
Summary of the method: as §1

NCI-H520 = system: NCI-H520
Summary of the method: as §1

NCI-H596 = system: NCI-H596
Summary of the method: as §1

NCI-H650 = system: NCI-H650
Summary of the method: as §1

NCI-H661 = system: NCI-H661
Summary of the method: as §1

NCI-H727 = system: NCI-H727
Summary of the method: as §1

PC-3 [JPC-3] = system: PC-3 [JPC-3]
Summary of the method: as §1

COc1cc2nccc(Oc3ccc(NC(=O)Nc4cc(C)on4)c(Cl)c3)c2cc1OC [Tivozanib] + CS(=O)(=O)CCNCc1ccc(-c2ccc3ncnc(Nc4ccc(OCc5cccc(F)c5)c(Cl)c4)c3c2)o1 [Lapatinib] (partner 2 µM)
relative viability (201T; first compound 0.005 µM): 1.04 | relative viability (201T; first compound 0.01581 µM): 1.06 | relative viability (201T; first compound 0.05 µM): 1.01 | relative viability (201T; first compound 0.1581 µM): 0.988 | relative viability (201T; first compound 0.5 µM): 1.07 | relative viability (A-427; first compound 0.005 µM): 1.02 | relative viability (A-427; first compound 0.01581 µM): 1.04 | relative viability (A-427; first compound 0.05 µM): 1.04 | relative viability (A-427; first compound 0.1581 µM): 0.96 | relative viability (A-427; first compound 0.5 µM): 1.06 | relative viability (ABC-1; first compound 0.005 µM): 1.33 | relative viability (ABC-1; first compound 0.01581 µM): 1.15 | relative viability (ABC-1; first compound 0.05 µM): 1.26 | relative viability (ABC-1; first compound 0.1581 µM): 1.16 | relative viability (ABC-1; first compound 0.5 µM): 1.22 | relative viability (BEN; first compound 0.005 µM): 0.476 | relative viability (BEN; first compound 0.01581 µM): 0.839 | relative viability (BEN; first compound 0.05 µM): 0.722 | relative viability (BEN; first compound 0.5 µM): 0.633 | relative viability (CAL-12T; first compound 0.005 µM): 0.563 | relative viability (CAL-12T; first compound 0.01581 µM): 0.752 | relative viability (CAL-12T; first compound 0.05 µM): 0.666 | relative viability (CAL-12T; first compound 0.5 µM): 0.784 | relative viability (H3255; first compound 0.005 µM): 0.247 | relative viability (H3255; first compound 0.01581 µM): 0.223 | relative viability (H3255; first compound 0.05 µM): 0.23 | relative viability (H3255; first compound 0.1581 µM): 0.232 | relative viability (H3255; first compound 0.5 µM): 0.211 | relative viability (LC-2-ad; first compound 0.005 µM): 0.959 | relative viability (LC-2-ad; first compound 0.01581 µM): 0.944 | relative viability (LC-2-ad; first compound 0.05 µM): 0.856 | relative viability (LC-2-ad; first compound 0.1581 µM): 0.542 | relative viability (LC-2-ad; first compound 0.5 µM): 0.466 | relative viability (LCLC-97TM1; first compound 0.005 µM): 0.948 | relative viability (LCLC-97TM1; first compound 0.01581 µM): 1.23 | relative viability (LCLC-97TM1; first compound 0.1581 µM): 0.807 | relative viability (LCLC-97TM1; first compound 0.5 µM): 0.821 | relative viability (NCI-H1650; first compound 0.005 µM): 0.707 | relative viability (NCI-H1650; first compound 0.01581 µM): 0.845 | relative viability (NCI-H1650; first compound 0.05 µM): 0.836 | relative viability (NCI-H1650; first compound 0.1581 µM): 0.717 | relative viability (NCI-H1650; first compound 0.5 µM): 0.721 | relative viability (NCI-H1651; first compound 0.005 µM): 0.744 | relative viability (NCI-H1651; first compound 0.01581 µM): 0.864 | relative viability (NCI-H1651; first compound 0.05 µM): 0.863 | relative viability (NCI-H1651; first compound 0.1581 µM): 0.653 | relative viability (NCI-H1651; first compound 0.5 µM): 0.634 | relative viability (NCI-H1915; first compound 0.005 µM): 0.992 | relative viability (NCI-H1915; first compound 0.01581 µM): 0.928 | relative viability (NCI-H1915; first compound 0.05 µM): 0.946 | relative viability (NCI-H1915; first compound 0.1581 µM): 0.965 | relative viability (NCI-H1915; first compound 0.5 µM): 0.882 | relative viability (NCI-H1944; first compound 0.005 µM): 0.826 | relative viability (NCI-H1944; first compound 0.01581 µM): 0.888 | relative viability (NCI-H1944; first compound 0.05 µM): 0.758 | relative viability (NCI-H1944; first compound 0.1581 µM): 0.666 | relative viability (NCI-H1944; first compound 0.5 µM): 0.841 | relative viability (NCI-H2023; first compound 0.005 µM): 0.731 | relative viability (NCI-H2023; first compound 0.01581 µM): 0.97 | relative viability (NCI-H2023; first compound 0.05 µM): 0.878 | relative viability (NCI-H2023; first compound 0.1581 µM): 0.634 | relative viability (NCI-H2023; first compound 0.5 µM): 0.768 | relative viability (NCI-H2087; first compound 0.005 µM): 1 | relative viability (NCI-H2087; first compound 0.01581 µM): 0.885 | relative viability (NCI-H2087; first compound 0.05 µM): 0.942 | relative viability (NCI-H2087; first compound 0.1581 µM): 1.2 | relative viability (NCI-H2087; first compound 0.5 µM): 0.859 | relative viability (NCI-H460; first compound 0.005 µM): 0.889 | relative viability (NCI-H460; first compound 0.01581 µM): 1 | relative viability (NCI-H460; first compound 0.05 µM): 0.979 | relative viability (NCI-H460; first compound 0.1581 µM): 1.12 | relative viability (NCI-H460; first compound 0.5 µM): 0.948 | relative viability (NCI-H520; first compound 0.005 µM): 0.763 | relative viability (NCI-H520; first compound 0.01581 µM): 0.912 | relative viability (NCI-H520; first compound 0.05 µM): 0.87 | relative viability (NCI-H520; first compound 0.1581 µM): 0.82 | relative viability (NCI-H520; first compound 0.5 µM): 0.757 | relative viability (NCI-H596; first compound 0.005 µM): 0.998 | relative viability (NCI-H596; first compound 0.01581 µM): 1.04 | relative viability (NCI-H596; first compound 0.05 µM): 1.04 | relative viability (NCI-H596; first compound 0.1581 µM): 1.04 | relative viability (NCI-H596; first compound 0.5 µM): 1.08 | relative viability (NCI-H650; first compound 0.005 µM): 0.759 | relative viability (NCI-H650; first compound 0.01581 µM): 0.807 | relative viability (NCI-H650; first compound 0.05 µM): 0.844 | relative viability (NCI-H650; first compound 0.1581 µM): 0.415 | relative viability (NCI-H650; first compound 0.5 µM): 0.535 | relative viability (NCI-H661; first compound 0.005 µM): 0.436 | relative viability (NCI-H661; first compound 0.01581 µM): 0.495 | relative viability (NCI-H661; first compound 0.05 µM): 0.46 | relative viability (NCI-H661; first compound 0.1581 µM): 0.496 | relative viability (NCI-H661; first compound 0.5 µM): 0.553 | relative viability (NCI-H727; first compound 0.005 µM): 0.676 | relative viability (NCI-H727; first compound 0.01581 µM): 0.901 | relative viability (NCI-H727; first compound 0.05 µM): 0.957 | relative viability (NCI-H727; first compound 0.5 µM): 0.787 | relative viability (PC-3 [JPC-3]; first compound 0.005 µM): 0.429 | relative viability (PC-3 [JPC-3]; first compound 0.01581 µM): 0.453 | relative viability (PC-3 [JPC-3]; first compound 0.05 µM): 0.509 | relative viability (PC-3 [JPC-3]; first compound 0.1581 µM): 0.378 | relative viability (PC-3 [JPC-3]; first compound 0.5 µM): 0.433
